# In patent US6303596A, “Use of taurolidine for treatment of leukemias” (priority 2000, dated 2001):
# Assays:
# [1] = tested on: other leukemia-derived cell lines; assay: growth after taurolidine treatment, other leukemia-derived cell lines; assay type: cell-based, human; settings: 50 μg/ml or greater
# Procedure: (§1) In these experiments, integrity of cell membranes following taurolidine treatment was assessed by exclusion of trypan blue and by measuring the release of LDH in MM6, K-562, HL-60, and REH cells. Since BCS contains significant amounts of LDH, these experiments were conducted on cells cultured in AIM-V+0.01% BCS. Four hour treatment of cells was conducted in AIM-V containing 0.01% BCS in order to allow subsequent LDH assay without interference from BCS (which occurs in when normal culture medium, containing 10% BCS, is used). Thus, MM6 cells (5×10^5 cells/ml) were treated with taurolidine for four hours in AIM-V+0.01% BCS, after which an aliquot of the cell suspension was removed for measurement of LDH release. A parallel aliquot of cells was lysed by three cycles of freeze/thaw and the quantity of LDH released was taken to be 100%. Remaining cells were rinsed in HBSS and resuspended in growth medium for measurement of growth rates.
# (§2) HL-60 cells treated with 50 μl taurolidine. In these samples, LDH present in the culture medium was 8.3±2.3% of that released by completely lysed cells, compared with 2.3±0.8% measured in control cultures. […] After 4 hour treatment, cells were rinsed and returned to growth medium and monitored for viability and growth over the following 3 days. […]
# [2] = tested on: all other cell lines; assay: LDH release (cell membrane integrity), all other cell lines; assay type: cell-based, human; settings: all samples from all other cell lines (n=3); 240 min
# Procedure: as §1, §2
# [3] = tested on: K-562; assay: growth rate after taurolidine treatment, K-562; assay type: cell-based, human
# Procedure: FIGS. 6A and 6B depict cell viability and growth rates for K562 cell line following taurolidine treatment, in terms of % trypan blue negative cells and % cell number, respectively. Cells were treated with various concentrations of taurolidine for 4 hours in AIM-V+0.01% BCS. After aliquots were collected for LDH assay, the remainder of the culture was rinsed in HBSS and resuspended in RPMI+10% BCS without taurolidine. Counts of trypan blue-negative cells (FIG. 6A), and total cell number (FIG. 6B), were recorded daily thereafter (with the measurement at Day 1 being made immediately after the 4 hour taurolidine treatment). Conditions were: no treatment (open circles); 25 μg/ml taurolidine (closed circles); 50 μg/ml taurolidine (open squares); 100 μg/ml taurolidine (closed squares); and vehicle alone (closed triangles). Doubling times were determined under each condition, and expressed as a percentage of the rate of doubling of untreated cells. These values are located to the right of the growth curves in (FIG. 6B). Cells were subcultured when they reached a concentration of 6×10^5 cells/ml. Data are mean±SEM of three experiments.
# as §1
# HL-60 cells treated with 50 μl taurolidine. In these samples, LDH present in the culture medium was 8.3±2.3% of that released by completely lysed cells, compared with 2.3±0.8% measured in control cultures. […] After 4 hour treatment, cells were rinsed and returned to growth medium and monitored for viability and growth over the following 3 days. Concentrations of taurolidine from 25 μg/ml to 100 μ/ml were used in order to highlight differences in sensitivity of cell lines to taurolidine.
# ^b Growth rate was measured over three days following treatment.
# [4] = septic patients, up to 20 grams for 2-5 consecutive days; cited from earlier work
# [5] = tested on: MM6; assay: TUNEL / propidium iodide flow cytometry, MM6; assay type: cell-based, human; settings: for % TUNEL-positive: MM6, taurolidine 100 μg/ml or anisomycin 1 μg/ml for 4 h, assayed at 6 hours, mean ± SD
# Procedure: (§3) In the second method, DNA fragmentation was detected via TUNEL assay according to the manufacturer's instructions. With this methodology, 2×10^6 cells were fixed with 2% paraformaldehyde, permeabilized with 0.1% Triton X-100/0.1% citrate, incubated at 37° C. with terminal deoxynucleotidyl transferase and FITC-dUTP, rinsed and analyzed by flow cytometry. Enhanced FITC signal indicates apoptosis-specific DNA fragmentation. Gavriali, et al, "Identification of programmed cell death in situ via specific labeling of nuclear DNA fragmentation," J Cell Biol 119:493 (1992). Parallel aliquots of unfixed cells were treated with PI and FITC-conjugated anti-CD14 and analyzed by flow cytometry, in order to identify cells with permeable cell membranes (since PI binds to DNA but is excluded from cells with intact plasma membranes) and also to determine the cell-specificity of the apoptotic signal.
# (§4) Consequently, TUNEL analysis was performed on PBMC at 3, 6, or 24 hours after treatment with 25 to 100 μg/ml taurolidine. Aliquots of harvested cells were also labeled with FITC-conjugated anti-CD14 antibodies and PI, which allowed identification of monocytes (CD14-positive cells) and cells with damaged cell membranes (PI-positive cells). […] Thus, nearly 75% of the monocytes were TUNEL-positive following treatment with 100 μg/ml taurolidine for six hours. Confirmation that the TUNEL-positive cells were monocytes was obtained by staining with FITC-conjugated anti-CD14.
# (§5) In another study, TUNEL assays were performed on all cell lines 6 hours after cells were initially exposed to taurolidine (cells were treated for 4 hours, rinsed, and then incubated for 2 more hours before TUNEL assay was performed).
# (§6) . Taurolidine and anisomycin induced apoptosis in MM6, HL-60, and Jurkat cells (Table VIII). MM6 and HL-60 cells were similarly effected, with >80% TUNEL-positive cells after 6 hours. Jurkat cells were less sensitive, with approximately 50% of cells induced to undergo apoptosis after taurolidine treatment. After 6 hours, 73% of anisomycin-treated REH cells were apoptotic, with less than 20% of taurolidine-treated REH cells being TUNEL-positive. However, assay of cells 24 hours after
# (§7) ^a Analysis by flow cytometry after staining cells with propidium
# (§8) iodide and processing for TUNEL.
# (§9) Data are percent of total cell-size events, and are expressed as mean ±
# (§10) Cells were treated for 4 hours with taurolidine (100 μg/ml) or
# (§11) anisomycin (1 μg/ml), and then assayed at 6 hours.
# [6] = tested on: HL-60; assay: TUNEL / propidium iodide flow cytometry, HL-60; assay type: cell-based, human; settings: for % TUNEL-positive: HL-60, taurolidine 100 μg/ml or anisomycin 1 μg/ml for 4 h, assayed at 6 hours, mean ± SD
# Procedure: as §3, §4, §5, §6, §7, §8, §9, §10, §11
structure (smiles),measurement,setting,value
"O=S1(=O)CCN(CN2CCS(=O)(=O)NC2)CN1 [taurolidine, 4,4'-methylenebis(perhydro-1,2,4-thiadiazin 1,1-dioxide)]",growth after taurolidine treatment,[1],inhibition of growth
same,"LDH levels, % of lysed cell samples",[2],≤ 7%
same,activity at 50 µg/mL,"[3]; Homo sapiens, K562, 72 h, K-562, 50 μg/ml for 4 h, growth over three days, read-out: growth rate (% of control)",52%
same,activity at 100 µg/mL,"[3]; Homo sapiens, K562, 72 h, K-562, 100 μg/ml for 4 h, growth over three days, read-out: growth rate (% of control)",0%
same,sensitivity of cell growth among cell lines,[3]; K562,least affected
same,growth after taurolidine treatment,"[3]; K562, 50 μg/ml or greater",inhibition of growth
same,toxicity in humans,[4],has not been associated with toxicity
same,cytotoxicity at 50 µg/mL,"[5]; Homo sapiens, MONO-MAC-6, 3 h, read-out: % Propidium Iodide Positive Cells",7%
same,% TUNEL-positive,[5],80.9 ± 7.7%
same,% TUNEL-positive,[5]; listed as Taurolidine,> 80%
same,onset of apoptosis after treatment,[5]; MM6 cells,detectable within four to six hours
same,% TUNEL-Negative Cells,"[5]; Mono Mac 6, 50 μg/ml, 3 hours",44%
same,% TUNEL-Negative Cells,"[6]; HL-60, 50 μg/ml, 3 hours",35%
same,% TUNEL-positive,[6],91.9 ± 10.9%
same,% TUNEL-positive,[6]; listed as Taurolidine,> 80%
same,cytotoxicity at 50 µg/mL,"[6]; Homo sapiens, HL-60, 3 h, read-out: % Propidium Iodide Positive Cells",5%
